Measurements published in PubChem BioAssay AID1963986 (Molecular Pharmacology Branch, DTP, NCI, 2024).

Test system: 171881-019-R-J1-PDC tumor spheroid viability
Assay: Anticancer human tumor 171881-019-R-J1-PDC patient-derived invasive breast carcinoma cell line growth inhibition [PI3K]
Settings: spheroids with HUVEC and MSC; for IC50: curve of first compound; for viability, T/C: stronger effect = lower value
Outline: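 Complex 3D spheroids (cancer cells + endothelial HUVEC + mesenchymal stem cells); drug pairs of targeted agent x inavolisib/alpelisib/duvelisib/copanlisib; half-log series from ~Cmax, max 10 microM if Cmax unknown; endpoint viability.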
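Note: spheroids exposed to compound for 7 days before viability read.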
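Throughout, for viability, T/C: 100% = DMSO vehicle-treated spheroids.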

CNC(=O)c1ccc(N2C(=S)N(c3ccc(C#N)c(C(F)(F)F)c3)C(=O)C2(C)C)cc1F + Cc1nc(NC(=O)N2CCCC2C(N)=O)sc1-c1ccnc(C(C)(C)C(F)(F)F)c1
IC50 (second compound 0.0316 µM): > 10000 nM | IC50 (second compound 0.1 µM): > 10000 nM | IC50 (second compound 0.316 µM): 4660 nM | IC50 (second compound 1 µM): < 31.6 nM | IC50 (second compound 3.16 µM): < 31.6 nM | IC50 (second compound 10 µM): < 31.6 nM | viability, T/C (second compound 0.0316 µM, first compound 0.0316 µM): 90.4% | viability, T/C (second compound 0.0316 µM, first compound 0.1 µM): 81.5% | viability, T/C (second compound 0.0316 µM, first compound 0.316 µM): 84.4% | viability, T/C (second compound 0.0316 µM, first compound 1 µM): 87.7% | viability, T/C (second compound 0.0316 µM, first compound 3.16 µM): 86% | viability, T/C (second compound 0.0316 µM, first compound 10 µM): 69.7% | viability, T/C (second compound 0.1 µM, first compound 0.0316 µM): 79% | viability, T/C (second compound 0.1 µM, first compound 0.1 µM): 77% | viability, T/C (second compound 0.1 µM, first compound 0.316 µM): 82.9% | viability, T/C (second compound 0.1 µM, first compound 1 µM): 66.4% | viability, T/C (second compound 0.1 µM, first compound 3.16 µM): 74.6% | viability, T/C (second compound 0.1 µM, first compound 10 µM): 66.1% | viability, T/C (second compound 0.316 µM, first compound 0.0316 µM): 58.6% | viability, T/C (second compound 0.316 µM, first compound 0.1 µM): 50.2% | viability, T/C (second compound 0.316 µM, first compound 0.316 µM): 50.3% | viability, T/C (second compound 0.316 µM, first compound 1 µM): 52.5% | viability, T/C (second compound 0.316 µM, first compound 3.16 µM): 57.2% | viability, T/C (second compound 0.316 µM, first compound 10 µM): 45.1% | viability, T/C (second compound 1 µM, first compound 0.0316 µM): 31.2% | viability, T/C (second compound 1 µM, first compound 0.1 µM): 31.1% | viability, T/C (second compound 1 µM, first compound 0.316 µM): 31.8% | viability, T/C (second compound 1 µM, first compound 1 µM): 30.9% | viability, T/C (second compound 1 µM, first compound 3.16 µM): 32.7% | viability, T/C (second compound 1 µM, first compound 10 µM): 27.7% | viability, T/C (second compound 3.16 µM, first compound 0.0316 µM): 13.2% | viability, T/C (second compound 3.16 µM, first compound 0.1 µM): 12.7% | viability, T/C (second compound 3.16 µM, first compound 0.316 µM): 13.1% | viability, T/C (second compound 3.16 µM, first compound 1 µM): 12.6% | viability, T/C (second compound 3.16 µM, first compound 3.16 µM): 12.5% | viability, T/C (second compound 3.16 µM, first compound 10 µM): 11.1% | viability, T/C (second compound 10 µM, first compound 0.0316 µM): 3.32% | viability, T/C (second compound 10 µM, first compound 0.1 µM): 3.53% | viability, T/C (second compound 10 µM, first compound 0.316 µM): 3.59% | viability, T/C (second compound 10 µM, first compound 1 µM): 3.51% | viability, T/C (second compound 10 µM, first compound 3.16 µM): 3.82% | viability, T/C (second compound 10 µM, first compound 10 µM): 3.48%

Cn1cnc2c(F)c(Nc3ccc(Br)cc3Cl)c(C(=O)NOCCO)cc21 + Cc1nc(NC(=O)N2CCCC2C(N)=O)sc1-c1ccnc(C(C)(C)C(F)(F)F)c1
IC50 (second compound 0.0316 µM): 437 nM | IC50 (second compound 0.1 µM): 105 nM | IC50 (second compound 0.316 µM): < 9.49 nM | IC50 (second compound 1 µM): < 9.49 nM | IC50 (second compound 3.16 µM): < 9.49 nM | IC50 (second compound 10 µM): < 9.49 nM | viability, T/C (second compound 0.0316 µM, first compound 0.00949 µM): 92.1% | viability, T/C (second compound 0.0316 µM, first compound 0.03 µM): 78.9% | viability, T/C (second compound 0.0316 µM, first compound 0.0949 µM): 71.5% | viability, T/C (second compound 0.0316 µM, first compound 0.3 µM): 58.5% | viability, T/C (second compound 0.0316 µM, first compound 0.949 µM): 35.9% | viability, T/C (second compound 0.0316 µM, first compound 3 µM): 16% | viability, T/C (second compound 0.1 µM, first compound 0.00949 µM): 73.9% | viability, T/C (second compound 0.1 µM, first compound 0.03 µM): 59% | viability, T/C (second compound 0.1 µM, first compound 0.0949 µM): 50.3% | viability, T/C (second compound 0.1 µM, first compound 0.3 µM): 41.8% | viability, T/C (second compound 0.1 µM, first compound 0.949 µM): 26.8% | viability, T/C (second compound 0.1 µM, first compound 3 µM): 12.4% | viability, T/C (second compound 0.316 µM, first compound 0.00949 µM): 45.7% | viability, T/C (second compound 0.316 µM, first compound 0.03 µM): 38.8% | viability, T/C (second compound 0.316 µM, first compound 0.0949 µM): 33.3% | viability, T/C (second compound 0.316 µM, first compound 0.3 µM): 28.6% | viability, T/C (second compound 0.316 µM, first compound 0.949 µM): 15.1% | viability, T/C (second compound 0.316 µM, first compound 3 µM): 5.7% | viability, T/C (second compound 1 µM, first compound 0.00949 µM): 28.8% | viability, T/C (second compound 1 µM, first compound 0.03 µM): 23.3% | viability, T/C (second compound 1 µM, first compound 0.0949 µM): 19.9% | viability, T/C (second compound 1 µM, first compound 0.3 µM): 15.1% | viability, T/C (second compound 1 µM, first compound 0.949 µM): 6.73% | viability, T/C (second compound 1 µM, first compound 3 µM): 2.34% | viability, T/C (second compound 3.16 µM, first compound 0.00949 µM): 11.5% | viability, T/C (second compound 3.16 µM, first compound 0.03 µM): 9.26% | viability, T/C (second compound 3.16 µM, first compound 0.0949 µM): 7.86% | viability, T/C (second compound 3.16 µM, first compound 0.3 µM): 5.01% | viability, T/C (second compound 3.16 µM, first compound 0.949 µM): 1.92% | viability, T/C (second compound 3.16 µM, first compound 3 µM): 0.87% | viability, T/C (second compound 10 µM, first compound 0.00949 µM): 2.26% | viability, T/C (second compound 10 µM, first compound 0.03 µM): 2.27% | viability, T/C (second compound 10 µM, first compound 0.0949 µM): 1.71% | viability, T/C (second compound 10 µM, first compound 0.3 µM): 0.92% | viability, T/C (second compound 10 µM, first compound 0.949 µM): 0.78% | viability, T/C (second compound 10 µM, first compound 3 µM): 0.48%
